Results taken from ChEMBL document CHEMBL3137667, “[Drug-induced liver injury; fourteenth updated edition of the bibliographic database of liver injuries and related drugs]” (Gastroenterol Clin Biol, 2004).

Experiments:
[1] = human, serum
[2] = human
[3] = human, serum, 4383 h
[4] = human; remark: listed apart in the source
[5] = human; remark: listed apart in the source
[6] = human; remark: listed apart in the source
[7] = human; remark: listed apart in the source
[8] = human; remark: listed apart in the source
[9] = Highest frequency of acute liver toxicity observed during clinical trials, expressed as a percentage. [column '% AIGUE' in source]; settings: human
[10] = human; remark: listed apart in the source
[11] = Highest frequency of moderate liver toxicity observed during clinical trials, expressed as a percentage. [column '% BIOL' in source]; settings: human
[12] = human; remark: listed apart in the source
[13] = human, serum; remark: listed apart in the source
[14] = human; remark: listed apart in the source
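For Hepatotoxicity (association with vascular disease) in this document: count of indexed literature references reporting vascular liver injury in humans, e.g. peliosis hepatitis, hepatic veno-occlusive disease or Budd-Chiari syndrome.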
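For Hepatotoxicity (benign tumour) in this document: value is a count of indexed literature references citing a benign tumour confirmed by histopathology.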
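For Hepatotoxicity (choleostasis) in this document: human cholestatic liver injury, shown by histopathology or by peak ALT or AST elevation over alkaline phosphatase ratio below 2, value counts indexed literature reports.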
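For Hepatotoxicity (chronic liver disease) in this document: chronic liver injury confirmed by histopathology or persistently raised serum aminotransferase activity beyond 6 months, value given as the count of indexed literature references.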
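For Hepatotoxicity (cirrhosis) in this document: value is a count of indexed literature references reporting cirrhosis confirmed by histopathology.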
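For Hepatotoxicity (cytolytic) in this document: human cytolytic liver injury, shown by histopathology or by a ratio above 5 of peak ALT or AST elevation to alkaline phosphatase elevation, value counts indexed references.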
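For Hepatotoxicity (granulomatous hepatitis) in this document: value is a count of indexed literature references reporting granulomatous liver disease confirmed by histopathology.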
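For Hepatotoxicity (malignant tumour) in this document: malignant tumour confirmed by histopathology, value gives the count of indexed literature references reporting it.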
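For Hepatotoxicity (severe hepatitis) in this document: human clinical data: severe hepatitis, meaning potentially life-threatening liver failure or clinically observed cases, the value counts how many indexed literature references report it.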
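For Hepatotoxicity (steatosis) in this document: steatosis confirmed by histopathology, value is the count of indexed references.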

| Structure (SMILES) | Hepatotoxicity (acute) [1] | Hepatotoxicity (association with vascular disease) [2] | Hepatotoxicity (chronic liver disease) [3] | Hepatotoxicity (granulomatous hepatitis) [4] | Hepatotoxicity (malignant tumour) [5] | Hepatotoxicity (severe hepatitis) [6] | Hepatotoxicity (cytolytic) [7] | Hepatotoxicity (steatosis) [8] | Hepatotoxicity (acute) [9] | Hepatotoxicity (choleostasis) [10] | Hepatotoxicity (moderate) [11] | Hepatotoxicity (benign tumour) [12] | Hepatotoxicity (moderate) [13] | Hepatotoxicity (cirrhosis) [14] | Hepatotoxicity (granulomatous hepatitis) ([4]; Liver) | Hepatotoxicity (severe hepatitis) ([6]; Liver) | Hepatotoxicity (cytolytic) ([7]; Liver) | Hepatotoxicity (acute) ([9]; Liver) | Hepatotoxicity (choleostasis) ([10]; Liver) | Hepatotoxicity (moderate) ([11]; Liver) |
| --- | --- | --- | --- | --- | --- | --- | --- | --- | --- | --- | --- | --- | --- | --- | --- | --- | --- | --- | --- | --- |
| NCCCC(N)(C(=O)O)C(F)F (stereo not given) [EFLORNITHINE] | 0 | 0 | 0 | 0 | 0 | 0 | 0 | 0 | 0% | 0 | 0% | 0 | 1 | 0 | – | – | – | – | – | – |
| COc1ccc(C(=O)Nc2ccccc2CCC2CCCCN2C)cc1 (stereo not given) [ENCAINIDE] | 1 | 0 | 0 | 0 | 0 | 0 | 0 | 0 | 0% | 0 | 0% | 0 | 0 | 0 | – | – | – | – | – | – |
| CSc1ccc(C(=O)c2[nH]c(=O)[nH]c2C)cc1 [ENOXIMONE] | 0 | 0 | 0 | 0 | 0 | 0 | 0 | 0 | 0% | 0 | 6% | 0 | 3 | 0 | – | – | – | – | – | – |
| CN1C[C@H](C(=O)N[C@]2(C)O[C@@]3(O)[C@@H]4CCCN4C(=O)[C@H](Cc4ccccc4)N3C2=O)C=C2c3cccc4[nH]cc(c34)C[C@H]21 [ERGOTAMINE] | 0 | 0 | 0 | 0 | 0 | 0 | 0 | 0 | 0% | 0 | 35.7% | 0 | 1 | 0 | – | – | – | – | – | – |
| C=C(OC)C(=O)Nc1cc(OC)c(OC)cc1C(=O)O[C@H]1C[C@H](O[C@@H]2C(=O)C(NC(=O)OC)=C3/C(=C\CSSSC)[C@]2(O)C#C/C=C\C#C[C@@H]3O[C@@H]2O[C@H](C)[C@@H](NO[C@H]3C[C@H](O)[C@H](SC)[C@@H](C)O3)[C@H](O)[C@H]2O[C@H]2C[C@H](OC)[C@@H](NC(C)C)CO2)O[C@@H](C)[C@H]1O [ESPERAMICIN A1] | 0 | 0 | 0 | 0 | 0 | 0 | 0 | 0 | 0% | 0 | 10.7% | 0 | 1 | 0 | – | – | – | – | – | – |
| C#CC(O)(/C=C/Cl)CC (stereo not given) [ETHCHLORVYNOL] | 2 | 0 | 0 | 0 | 0 | 0 | 0 | 0 | 0% | 2 | 0% | 0 | 0 | 0 | – | – | – | – | – | – |
| CCN1C(=O)NC(c2ccccc2)C1=O (stereo not given) [ETHOTOIN] | 0 | 0 | 0 | 0 | 0 | 0 | 0 | 0 | 0% | 0 | 2% | 0 | 1 | 0 | – | – | – | – | – | – |
| CC(O)(P(=O)(O)O)P(=O)(O)O [ETIDRONIC ACID] | 0 | 0 | 0 | 0 | 0 | 0 | 0 | 0 | 0% | 0 | 8.7% | 0 | 1 | 0 | – | – | – | – | – | – |
| CC(C)(Oc1ccc(Cl)cc1)C(=O)OCCOC(=O)c1cccnc1 [ETOFIBRATE] | 0 | 0 | 0 | 0 | 0 | 0 | 0 | 0 | 0% | 0 | 0% | 0 | 1 | 0 | – | – | – | – | – | – |
| COc1ccc(CCN(C)CCCOc2ccc(S(=O)(=O)c3c(C(C)C)cn4ccccc34)cc2)cc1OC [FANTOFARONE] | 0 | 0 | 0 | 0 | 0 | 0 | 0 | 0 | 0% | 0 | 2.7% | 0 | 1 | 0 | – | – | – | – | – | – |
| C[C@@H](O)[C@H]1C(=O)N2C(C(=O)O)=C([C@H]3CCCO3)S[C@H]12 [FAROPENEM] | 0 | 0 | 0 | 0 | 0 | 0 | 0 | 0 | 0% | 0 | 20% | 0 | 39 | 0 | – | – | – | – | – | – |
| Nc1ncn([C@@H]2O[C@H](CO)[C@@H](O)[C@@H]2O)c(=O)n1 [FAZARABINE] | 0 | 0 | 0 | – | 0 | – | – | 0 | – | – | – | 0 | 1 | 0 | 0 | 0 | 0 | 0% | 0 | 46.4% |
| CCOC(=O)C1=C(C)NC(C)=C(C(=O)OC)C1c1cccc(Cl)c1Cl (stereo not given) [FELODIPINE] | 0 | 0 | 0 | 0 | 0 | – | 0 | 0 | – | 0 | – | 0 | 3 | 0 | – | 0 | – | 0% | – | 20% |
| O=C(O)Cc1ccccc1Oc1ccc(Cl)cc1Cl [FENCLOFENAC] | 0 | 0 | 0 | 0 | 0 | 0 | 0 | 0 | 0% | 0 | 1% | 0 | 1 | 0 | – | – | – | – | – | – |
| CC(C)(C)NC(=O)[C@H]1CC[C@H]2[C@@H]3CC[C@H]4NC(=O)C=C[C@]4(C)[C@H]3CC[C@]12C [FINASTERIDE] | 0 | 0 | 0 | 0 | 0 | 0 | 0 | 0 | 0% | 0 | 9% | 0 | 1 | 0 | – | – | – | – | – | – |
